*1 amine or outer side, *2 acyl side, *3 side chain or, on linkers, in order; H or OH if unused. Where a SMILES comes first, the peptide text is derived from it. Bridges are numbered along the chain shown (N, C = ends). [ ]: non-standard residue; d: D form. The star is where a group is joined. X1 = COc1cc2cc(c1Cl)N(C)C(=O)C[C@H](OC(=O)[C@H](C)N(C)C(=O)CCSSC(C)CCC(=O)*)[C@]1(C)O[C@H]1[C@H](C)[C@@H]1C[C@@](O)(NC(=O)O1)[C@H](OC)/C=C/C=C(\C)C2; 1Nal = N[C@@H](Cc1cccc2ccccc12)C(=O)O; TBMB = c1c(C[*:1])cc(C[*:3])cc1C[*:2]; Tle = CC(C)(C)[C@H](N)C(=O)O; βAla = NCCC(=O)O; Sar = CNCC(=O)O
System: 3LL syngeneic model
Experiment: In vivo efficacy of BT1718 in 3LL syngeneic model (Example 9)
Set-up: species or system Mus Musculus
Description: The objective of this study was to evaluate the in vivo anti-tumor efficacy of BT1718 in the treatment of the subcutaneous 3LL syngeneic model in C57BL/6 mice.
The 3LL tumor cells were maintained in vitro as a monolayer culture in medium supplemented with 10% heat inactivated fetal bovine serum at 37° C. in an atmosphere of 5% CO2 in air. The tumor cells were routinely subcultured twice weekly by trypsin-EDTA treatment. The cells growing in an exponential growth phase were harvested and counted for tumor inoculation.
Each mouse was inoculated subcutaneously at the right flank with 3LL tumor cells (1×106) in 0.1 ml of PBS for tumor development. The animals were randomized and treatment was started when the average tumor volume reaches approximately 105 mm^3 for the efficacy study. The test article administration and the animal numbers in each group were shown in the experimental design table (Table 48).
All the procedures related to animal handling, care and the treatment in the study were performed according to the guidelines of the Association for Assessment and Accreditation of Laboratory Animal Care (AAALAC). At the time of routine monitoring, the animals were daily checked for any effects of tumor growth and treatments on normal behavior such as mobility, food and water consumption (by looking only), body weight gain/loss (body weights were measured every day), eye/hair matting and any other abnormal effect as stated in the protocol. Death and observed clinical signs were recorded on the basis of the numbers of animals within each subset.
The major endpoint was to see if the tumor growth could be delayed or mice could be cured. Tumor size was measured three times weekly in two dimensions using a caliper, and the volume was expressed in mm^3 using the formula: V=0.5 a×b2 where a and b are the long and short diameters of the tumor, respectively. The tumor size was then used for calculations of T/C value. The T/C value (in percent) is an indication of antitumor effectiveness; T and C are the mean volumes of the treated and control groups, respectively, on a given day.
TGI was calculated for each group using the formula: TGI (%)=[1−(Ti−T0)/(Vi−V0)]×100; Ti is the average tumor volume of a treatment group on a given day, T0 is the average tumor volume of the treatment group on the day of treatment start, Vi is the average tumor volume of the vehicle control group on the same day with Ti, and V0 is the average tumor volume of the vehicle group on the day of treatment start.
Summary statistics, including mean and the standard error of the mean (SEM), are provided for the tumor volume of each group at each time point.
Statistical analysis of difference in tumor volume among the groups was conducted on the data obtained at the best therapeutic time point after the final dose.
A one-way ANOVA was performed to compare tumor volume among groups, and when a significant F-statistics (a ratio of treatment variance to the error variance) was obtained, comparisons between groups were carried out with Games-Howell test. All data were analyzed using Prism. P<0.05 was considered to be statistically significant.

## COc1cc2cc(c1Cl)N(C)C(=O)C[C@H](OC(=O)[C@H](C)N(C)C(=O)CCSSC(C)CCC(=O)NCCC(=O)N(C)CC(=O)N(C)CC(=O)N(C)CC(=O)N(C)CC(=O)N(C)CC(=O)N(C)CC(=O)N(C)CC(=O)N(C)CC(=O)N(C)CC(=O)N(C)CC(=O)N[C@@H](C)C(=O)N[C@H]1CSCc3cc4cc(c3)CSC[C@H](NC(=O)[C@@H](C)NC(=O)[C@H](Cc3cccc5ccccc35)NC(=O)[C@H](CCC(=O)O)NC(=O)[C@H](CC(N)=O)NC(=O)[C@@H](C)NC1=O)C(=O)N[C@@H](CCC(=O)O)C(=O)N[C@@H](CC(=O)O)C(=O)N[C@@H](Cc1ccccc1)C(=O)N[C@@H](Cc1ccc(O)cc1)C(=O)N[C@@H](CC(=O)O)C(=O)N[C@@H](C(C)(C)C)C(=O)N[C@H](C(N)=O)CSC4)[C@]1(C)O[C@H]1[C@H](C)[C@@H]1C[C@@](O)(NC(=O)O1)[C@H](OC)/C=C/C=C(\C)C2 (stereo partly shown) [BT1718] ({X1-βAla}-[Sar][Sar][Sar][Sar][Sar][Sar][Sar][Sar][Sar][Sar]AC[dA]NE[1Nal][dA]CEDFYD[Tle]C-NH2; linker 12-18-25 via TBMB (inferred))
1 mg/kg, day 14
  TGI: 104.9%
  Tumor Volume: 2649 mm^3
3 mg/kg, day 14
  TGI: 69.9%
  Tumor Volume: 1764 mm^3
10 mg/kg, day 14
  TGI: 89.9
  Tumor Volume: 350 mm^3
1 mpk biw, day 0
  tumor volume trace over time: 106 ± 10 mm^3
1 mpk biw, day 2
  tumor volume trace over time: 239 ± 47 mm^3
1 mpk biw, day 4
  tumor volume trace over time: 405 ± 98 mm^3
1 mpk biw, day 7
  tumor volume trace over time: 765 ± 190 mm^3
1 mpk biw, day 9
  tumor volume trace over time: 1120 ± 267 mm^3
1 mpk biw, day 11
  tumor volume trace over time: 1568 ± 392 mm^3
1 mpk biw, day 14
  T/C: 104.9%
  TGI: −5.1%
  tumor volume trace over time: 2649 ± 553 mm^3
1 mpk, biw, day 14, Mean ± SEM
  Tumor Volume: 2649 ± 553 mm^3
3 mpk biw, day 0
  tumor volume trace over time: 105 ± 9 mm^3
3 mpk biw, day 2
  tumor volume trace over time: 234 ± 48 mm^3
3 mpk biw, day 4
  tumor volume trace over time: 423 ± 86 mm^3
3 mpk biw, day 7
  tumor volume trace over time: 706 ± 152 mm^3
3 mpk biw, day 9
  tumor volume trace over time: 991 ± 245 mm^3
3 mpk biw, day 11
  tumor volume trace over time: 1149 ± 313 mm^3
3 mpk biw, day 14
  T/C: 69.9%
  TGI: 31.4%
  tumor volume trace over time: 1764 ± 471 mm^3
3 mpk, biw, day 14, Mean ± SEM
  Tumor Volume: 1764 ± 471 mm^3
10 mpk biw, day 0
  tumor volume trace over time: 106 ± 8 mm^3
10 mpk biw, day 2
  tumor volume trace over time: 181 ± 21 mm^3
10 mpk biw, day 4
  tumor volume trace over time: 272 ± 38 mm^3
10 mpk biw, day 7
  tumor volume trace over time: 339 ± 86 mm^3
10 mpk biw, day 9
  tumor volume trace over time: 321 ± 85 mm^3
10 mpk biw, day 11
  tumor volume trace over time: 343 ± 92 mm^3
10 mpk biw, day 14
  T/C: 13.8%
  TGI: 89.9%
  tumor volume trace over time: 350 ± 105 mm^3
10 mpk, biw, day 14, Mean ± SEM
  Tumor Volume: 350 ± 105 mm^3
All mice
  body weight effect: maintained their bodyweight well
